Source: patent US3983120A, “Process for the preparation of optionally substituted 1,2,3,5-tetrahydroimidazo[2,1-b]quinazolin-2-ones” (Bristol-Myers Company, priority 1974, dated 1976)

What was measured:
[1] = tested on: ADP-induced aggregation of blood platelet-rich plasma; experiment: In Vivo/In Vitro platelet aggregation (ADP) after I.P. dosing of rabbits; conditions: Oryctolagus cuniculus, ip, 2 h, dose for 50% inhibition of aggregation, one to two hours after dosing
Experimental: (§1) *In vivo/In vitro testing:
(§2) Before dosing the animals, blood samples are taken. The blood is centrifuged to obtain the blood platelet-rich plasma. Aggregation of this plasma is induced with ADP or collagen. This is the control.
(§3) The animals are then dosed with the compounds to be tested (orally or parenterally). Depending upon the route of administration, one to two hours are allowed to elapse after dosing. Blood is drawn and the same procedure employed as for the control is untreated animals.
The dose required to produce 50% inhibition of the aggregation is determined by dose response data obtained in this manner.

[2] = tested on: ADP-induced aggregation of blood platelet-rich plasma; experiment: In Vivo/In Vitro platelet aggregation (ADP) after P.O. dosing of dogs; conditions: one to two hours after dosing
Experimental: as §1, §2, §3

[3] = literature, in words; cited from earlier work

Compound | ED50 [1] [mg/kg] | In Vivo/In Vitro Dogs P.O. 5 mg./kg. ADP % Inhibition [2] [%] | antihypertensive / hypotensive activity of prior art compounds [3]
CC1c2ccccc2N=C2NC(=O)CN21 (stereo not drawn) [Compound 29] | 7 | 35 | –
c1ccc2c(c1)CN1CCNC1=N2 [SPC2] | – | – | potent antihypertensive activity in rats, dogs, cats and rabbits
